# Data reported in patent US10857136B2, “Compounds for use in the prevention and/or treatment of non-alcoholic fat liver disease and non-alcoholic steatohepatitis” (SJT MOLECULAR RESEARCH, SL, priority 2017, dated 2020).
# How the values were obtained:
# Assay type in all cases: in vivo
# [1] = tested on: DIO-NASH mice (C57Bl/6J male mice); test: Total fat content in liver (morphometry, H&E), 8 weeks assay in DIO-NASH mice; details: 50 mg/kg, p.o., b.i.d., vs DIO-NASH vehicle
# Excerpt: (§1) The DIO-NASH mouse model is fed a high fat diet that results on non-alcoholic fat liver disease and are based on C57Bl/6J mice put on a 40% high fat diet prior to the assays. For the assessment of effect of the compounds of the invention in liver lipid content in non-alcoholic fat liver disease, 34 C57Bl/6J male mice (5-week-old at delivery), obtained from Janvier, France, were used. The DIO-NASH mice group were put on high fat diet (40% AMLN diet, D09100301 Research Diets, USA) and a control group (LEAN-CHOW) was put on a regular chow diet (Altromin 1324, Brogaarden, Denmark) for 35 weeks prior to the study.
# The animals (kept in single housings) were checked minimum once daily where signs of abnormal behavior, abnormal locomotor activity, ataxia or clinical signs of disease (lack of grooming, raised fur, signs of pain upon handling, loss of excessive body-weight) were followed closely. […]
# To assess the effect of compound 4a on hepatic lipid content in mice with non-alcoholic fat liver disease, DIO-NASH mice (C57Bl/6J male mice) were treated with a hydrochloride salt of compound 4a during 8 weeks (50 mg/kg, p.o., b.i.d.), versus a control of DIO-NASH mice treated with saline (0.9% NaCl) and versus LEAN-CHOW mice also treated with saline (0.9% NaCl), […]. Liver lipid content was determined by morphometry. […]
# [2] = tested on: DIO-NASH mice (C57Bl/6J male mice); test: Triglycerides and cholesterol liver content, 8 weeks assay in DIO-NASH mice; details: 50 mg/kg, p.o., b.i.d., vs DIO-NASH vehicle
# Excerpt: as §1
# To assess the effect of compound 4a on hepatic triglyceride or cholesterol content in animals with non-alcoholic fat liver disease, DIO-NASH mice (C57Bl/6J male mice) were treated with a hydrochloride salt of compound 4a during 8 weeks (50 mg/kg, p.o., b.i.d.), versus a pathological control of DIO-NASH mice and a non-pathological control LEAN-CHOW mice, both treated with the vehicle (0.9% NaCl). […]
# The triglyceride content in liver was determined using the Triglyceride reagent (Cat. no. 22-045-795, Roche Diagnostics, Germany) on a Cobas™ C-501 autoanalyzer. Homogenized liver tissue was heated to 80-100° C. twice, centrifuged in a microcentrifuge and the triglyceride content was measured in the supernatant.
# [3] = tested on: DIO-NASH mice (C57Bl/6J male mice); test: Liver weight, 8 weeks assay in DIO-NASH mice; details: 50 mg/kg, p.o., b.i.d., vs DIO-NASH vehicle
# Protocol: The animals were kept and examined under the same conditions were used as in example 2.2. The liver biopsies were also carried out under the same conditions as in example 2.2.
# To assess the effect of compound 4a on liver weight of mice with non-alcoholic fat liver disease, DIO-NASH mice (C57Bl/6J male mice) were treated with a hydrochloride salt of compound 4a during 8 weeks (50 mg/kg, p.o., b.i.d.), versus a pathological control of DIO-NASH mice and a non-pathological control LEAN-CHOW mice, both treated with the vehicle (0.9% NaCl). The DIO-NASH mice group were put on high fat diet (40% AMLN diet, D09100301 Research Diets, USA) and a control group (LEAN-CHOW) was put on a regular chow diet (Altromin 1324, Brogaarden, Denmark) for 35 weeks prior to the study.
# [4] = tested on: DIO-NASH mice (C57Bl/6J male mice); test: Liver inflammation: galectin-3 IHC staining in DIO-NASH mice; details: 50 mg/kg, p.o., b.i.d., 8 weeks
# Protocol: To assess the effect of the compounds of the invention in inflammation of liver in the treatment of non-alcoholic fat liver disease, liver galactin-3 (inflammation marker) levels were determined after a 8 weeks study where DIO-NASH mice (C57Bl/6J male mice) were treated with a hydrochloride salt of compound 4a during 8 weeks (50 mg/kg, p.o., b.i.d.), versus a pathological control of DIO-NASH mice and a non-pathological control LEAN-CHOW mice, both treated with the vehicle (0.9% NaCl).
# Galectin-3 was measured via galtactin-3 IHC staining: galectin-3 (Biolegend, Cat. #125402) IHC were performed using standard procedures. Briefly, after antigen retrieval and blocking of endogenous peroxidase activity, slides were incubated with primary antibody. The primary antibody was detected using a linker secondary antibody followed by amplification using a polymeric HRP-linker antibody conjugate. Next, the primary antibody was visualized with DAB as chromogen. Finally, sections were counterstained in hematoxylin and cover-slipped.
smiles,measurement,setting,value
"COc1ccc(-c2nc(C(=O)NCCN)cc3c2[nH]c2ccccc23)cc1 [Compound 4a, N(-ethylamine)-1-benzosubstituted-β-carboline-3-carboxamide]",steatosis in representative images of liver morphology (H&E),[1],diminished the steatosis
same,liver lipid content (steatosis) determined by morphometry,[1]; p<0.001,reduced liver lipid content
same,liver cholesterol levels,[2],reduced liver cholesterol levels
same,liver triglyceride levels,[2],reduced liver triglyceride levels
same,total liver weight,[3],reduced liver weight
same,"anti-galectin-3 staining, representative images of liver samples",[4]; end of study,visible change in this inflammation marker
same,total liver galectin-3 content determined by morphometry,[4]; vs DIO-NASH vehicle,reduced total galectin-3 content
